# Results taken from ChEMBL document CHEMBL4825726, “Structural insights in galectin-1-glycan recognition: Relevance of the glycosidic linkage and the N-acetylation pattern of sugar moieties” (Bioorg Med Chem, 2021).
# Key:
# Galectin-1 [1] = target: T1, Galectin-1 (Homo sapiens, UniProt P09382); experiment: Binding affinity to human Gal-1 assessed as inhibition of Gal-1 binding to immobilized asialofetuin pretreated with Gal-1 for 2 hrs followed by incubation with asialofetuin for 2 hrs by competitive solid phase assay
# T1 sequence (P09382 whole entry): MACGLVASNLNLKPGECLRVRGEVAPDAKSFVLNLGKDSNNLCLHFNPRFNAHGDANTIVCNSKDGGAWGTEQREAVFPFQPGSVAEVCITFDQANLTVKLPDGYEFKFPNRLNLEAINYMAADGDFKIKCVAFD
# Galectin-1 [2] = target: T1, Galectin-1; experiment: Binding affinity to human Gal-1 assessed as Gibbs free energy change by isothermal titration calorimetry
# Galectin-1 [3] = target: T1, Galectin-1; experiment: Binding affinity to human Gal-1 assessed as inhibition of Gal-1 binding to immobilized asialofetuin pretreated with Gal-1 for 2 hrs followed by incubation with asialofetuin for 2 hrs by competitive solid phase assay relative to lactose; details: time 4.0 hrs
# Galectin-1 [4] = target: T1, Galectin-1; experiment: Binding affinity to human Gal-1 assessed as change in enthalpy by isothermal titration calorimetry
# Galectin-1 [5] = target: T1, Galectin-1; experiment: Binding affinity to human Gal-1 assessed as change in entropy by isothermal titration calorimetry
# Galectin-1 [6] = target: T1, Galectin-1; experiment: Binding affinity to human Gal-1 assessed as dissociation constant by isothermal titration calorimetry
IC50 (Galectin-1 [1]; read-out: IC50) [µM],deltaG (Galectin-1 [2]) [kcal/mol],Ratio (Galectin-1 [3]),deltaH (Galectin-1 [4]) [kcal/mol],-TdeltaS (Galectin-1 [5]) [kcal/mol],deltaS (Galectin-1 [5]) [J/mol.K],Kd (Galectin-1 [6]) [µM],IC50 (Galectin-1 [1]),Structure (SMILES)
2050,-5.19,2.37,-11.4,6.21,-87.2,161,,CC(=O)N[C@H]1C(O)O[C@H](CO)[C@@H](O)[C@@H]1O[C@@H]1O[C@H](CO)[C@H](O)[C@H](O)[C@H]1O (stereo partly specified)
21200,-4.25,0.22,-3.66,-0.598,8.4,770,,CC(=O)N[C@H]1[C@H](O[C@H]2[C@H](O)[C@@H](NC(C)=O)C(O)O[C@@H]2CO)O[C@H](CO[C@@H]2O[C@H](CO)[C@H](O)[C@H](O)[C@H]2O)[C@@H](O)[C@@H]1O (stereo partly specified)
13000,-4.49,0.36,-4.28,-0.215,3,499,,CC(=O)N[C@H]1C(O)O[C@H](CO[C@@H]2O[C@H](CO)[C@H](O)[C@H](O)[C@H]2O)[C@@H](O)[C@@H]1O (stereo partly specified)
,,,-10.8,5.71,-80.2,,,OC[C@H]1O[C@@H](O[C@H]2[C@H](O)[C@@H](O)C(O)O[C@@H]2CO)[C@H](O)[C@@H](O)[C@H]1O (stereo partly specified)
1970,-5.47,2.37,-12,6.55,-91.9,96,,CC(=O)N[C@H]1C(O)O[C@H](CO)[C@@H](O[C@@H]2O[C@H](CO)[C@H](O)[C@H](O)[C@H]2O)[C@@H]1O (stereo partly specified)
,-3.92,,-1.79,-2.13,,1330,Not Active,OC[C@H]1O[C@@H](OC[C@H]2OC(O)[C@H](O)[C@@H](O)[C@@H]2O)[C@H](O)[C@@H](O)[C@H]1O (stereo partly specified)
